We go through four compounds from patent US6630157B1, “Therapeutic and dietary compositions containing essential fatty acids and bioactive disulphides” (Viatris GmbH & Co. KG., priority 1997, dated 2003).

Test [1] has as its system sciatic nerve of rats made diabetic by streptozotocin. The test is described as follows: sciatic nerve blood flow by microelectrode polarography hydrogen clearance in streptozotocin diabetic rats. In kind it is in vivo, rat. Conditions: STZ diabetic Sprague Dawley rats; GLA approx. 20 mg/kg/daily in food, TA 20 mg/kg/day intraperitoneal; 2 weeks treatment starting 6 weeks after STZ. From the text:
(§1) Initial experimental evidence was obtained by studying rats made diabetic by the administration of streptozotocin. In such animal, complications resembling human complications of diabetes develop, and are characterised by reduction in conduction velocity to of impulses along the sciatic nerve and reduction in blood flow to the sciatic nerve. The reduction in blood flow is particularly important and is likely to be relevant to many complications of diabetes including retinopathy, nephropathy macrovascular arterial disease of the heart and peripheral arteries, impotence and leg ulceration. It may also be relevant to many of the other conditions in which essential fatty acids are useful treatments, including the inflammatory disorders. Five groups of animals given streptozotocin (STZ) were tested. They were accepted into the study only if they developed unequivocal elevation of blood glucose after the STZ. Ten animals acted as normal controls. […] The animals were left for 6 weeks after the STZ to allow the nerve damage to develop and were then given treatment with nothing or with GLA or TA or both together for 2 weeks At the end of the two weeks, the animals were anaesthetised and the motor nerve conduction velocity measured in the perineal branch of the sciatic nerve. Sciatic nerve blood flow was also measured by microelectrode polarography hydrogen clearance

Test [2] concerns perineal branch of the sciatic nerve of rats made diabetic by streptozotocin. The test is described as follows: motor nerve conduction velocity in streptozotocin diabetic rats. The conditions noted are these: STZ diabetic Sprague Dawley rats; GLA approx. 20 mg/kg/daily in food, TA 20 mg/kg/day intraperitoneal; 2 weeks treatment starting 6 weeks after STZ. Type of test: in vivo, rat.
From the text: as §1

The subject of test [3] is nerve conduction. The conditions noted are these: TA alone; Packer et al, pages 570-572; cited from earlier work.
Test [4] has as its system plasma phospholipids. The experiment in a line: fatty acid levels in plasma phospholipids of rats fed GLA, EPA or DHA with or without anti-oxidant. Type of test: in vivo, rat. The conditions noted are these: fatty acid (GLA, EPA or DHA) 0.1% by weight in food plus 0.1% by weight anti-oxidant, two weeks, preliminary experiments. The protocol:
(§2) In an effort to explore the effect further, we have performed preliminary experiments on rats on the effects of the administration of either GLA, EPA or DHA with or without the so anti-oxidants vitamin E, vitamin C or TA. Each fatty acid was added to the food at 0.1% by weight for a period of two weeks. The diet also contained either no other added material (control) or 0.1% by weight of vitamin E, vitamin C or TA. After two weeks the animals were killed and the levels of the fatty acids or their immediate metabolites determined in plasma phospholipids and in red cell membrane phospholipids. […] We can therefore conclude that there is no effect of anti-oxidants per se on the metabolism of the GLA, EPA or DHA in this situation. Equally, there were no effects of TA on the plasma phospholipid fatty acid composition. In contrast, in each of the groups the concentrations of the relevant fatty acids in red cell phospholipids were increased by 10-20%.

The test system of test [5] is red cell membrane phospholipids. The test is described as follows: fatty acid levels in red cell membrane phospholipids of rats fed GLA, EPA or DHA with or without anti-oxidant. Type of test: in vivo, rat. The conditions noted are these: two weeks; for effect on levels of the fatty acids or their immediate metabolites in red cell membrane phospholipids: fatty acid (GLA, EPA or DHA) 0.1% by weight in food plus 0.1% by weight anti-oxidant, preliminary experiments. As for the experimental part:
as §2

In test [6] the test system is animals with diabetes. The experiment in a line: vitamin E administered together with GLA in animals with diabetes. In kind it is in vivo. The text has this:
(§3) The results with EFA's and their synergistic effects with TA were completely unexpected and we decided to investigate them further. Vitamin E, like TA, is a lipophilic antioxidant and is one which is generally regarded as being physiologically more important than TA.

In test [7] the test system is atopic eczema, breast pain, rheumatoid arthritis and cardiovascular disease. The test is described as follows: clinical studies of GLA with co-administration of vitamin E. In kind it is in vivo, human.
From the text: as §3

“Also recorded” adds a separate entry of the source.

In the case of `CCCCC/C=C\C/C=C\C/C=C\CCCCC(=O)O` [GLA, Gamma-linolenic acid], the “total nerve blood flow” value in test [1] was “little effect alone; also recorded: small improvements”. Besides, the “motor nerve conduction velocity” value in test [2] is listed as “little effect alone; also recorded: small improvements”.

Consider `O=C(O)CCCCC1CCSS1` (stereo not drawn) [TA, α-lipoic acid], for which, in test [1], the “total nerve blood flow” value is listed as “little effect alone; also recorded: small improvements”. For the same compound, the “effect on nerve conduction” value in test [3] was “absence of effect”. Besides, in test [2], the “motor nerve conduction velocity” value is listed as “little effect alone; also recorded: small improvements”. Further, the “effect on levels of the fatty acids or their immediate metabolites in plasma phospholipids” value (from here on “effect on levels … in plasma phospholipids”) in test [4] is recorded as “no effects”. Also, in test [5] (GLA, EPA or DHA 0.1% by weight in food plus 0.1% by weight TA, versus control without TA), the “increase of concentrations of the relevant fatty acids in red cell phospholipids” value is recorded as 10-20%.

Turning to `O=C1O[C@H]([C@@H](O)CO)C(O)=C1O` [vitamin C], the “effect on levels … in plasma phospholipids” value in test [4] is “Neither vitamin E nor vitamin C had any effects”. In addition, the “effect on levels of the fatty acids or their immediate metabolites in red cell membrane phospholipids” value in test [5] is recorded as “Neither vitamin E nor vitamin C had any effects”.

On to vitamin E, for which, in test [6], the “enhancement of the effect of GLA” value is on record as “no enhancement at all”. Besides, the “enhancement of the effects of GLA in clinical studies” value in test [7] is recorded as “not enhanced”. Also, the “effect on levels … in plasma phospholipids” value in test [4] is “Neither vitamin E nor vitamin C had any effects”. Also, the “effect on levels of the fatty acids or their immediate metabolites in red cell membrane phospholipids” value in test [5] is “Neither vitamin E nor vitamin C had any effects”.
